{"source": "ChEMBL document CHEMBL1145334", "about": "“Structural determinants of Torpedo californica acetylcholinesterase inhibition by the novel and orally active carbamate based anti-alzheimer drug ganstigmine (CHF-2819)” (J Med Chem, 2006)", "note": "Structures can show the parent of a compound that is named as a salt."}
{"biological_target": "Acetylcholinesterase (Torpedo californica, UniProt P04058)", "sequence (P04058 whole entry)": "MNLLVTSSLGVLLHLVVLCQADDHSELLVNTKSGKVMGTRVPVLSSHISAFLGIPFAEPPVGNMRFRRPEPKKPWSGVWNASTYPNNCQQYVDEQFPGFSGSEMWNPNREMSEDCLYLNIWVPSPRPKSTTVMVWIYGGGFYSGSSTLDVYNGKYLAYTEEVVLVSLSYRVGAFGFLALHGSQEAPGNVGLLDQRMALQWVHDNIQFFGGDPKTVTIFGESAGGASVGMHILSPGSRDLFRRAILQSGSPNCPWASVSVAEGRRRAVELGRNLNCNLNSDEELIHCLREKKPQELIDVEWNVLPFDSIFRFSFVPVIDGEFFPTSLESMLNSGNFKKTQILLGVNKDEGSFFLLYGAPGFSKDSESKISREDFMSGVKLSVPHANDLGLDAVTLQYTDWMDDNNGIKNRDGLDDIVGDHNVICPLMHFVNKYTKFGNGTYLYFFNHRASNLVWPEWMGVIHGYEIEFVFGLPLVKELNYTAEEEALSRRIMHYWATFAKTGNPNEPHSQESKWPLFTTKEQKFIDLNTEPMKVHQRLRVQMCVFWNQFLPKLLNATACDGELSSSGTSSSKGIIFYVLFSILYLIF", "test": "Inhibition of Torpedo californica AChE", "set-up": "species or system Tetronarce californica", "settings": "not given", "units": {"IC50": "µM"}}
{"smiles": "CCc1cccc(NC(=O)Oc2ccc3c(c2)[C@]2(C)CC[N+](C)([O-])[C@@H]2N3C)c1", "note": "(stereo partly drawn)", "IC50": 9.8}
{"smiles": "CCc1ccccc1NC(=O)Oc1ccc2c(c1)[C@]1(C)CC[N+](C)([O-])[C@@H]1N2C", "note": "(stereo partly drawn)", "IC50": 5.12}
{"smiles": "CC(C)c1ccccc1NC(=O)Oc1ccc2c(c1)[C@]1(C)CC[N+](C)([O-])[C@@H]1N2C", "note": "(stereo partly drawn)", "IC50": 8.38}
{"smiles": "CNC(=O)Oc1ccc2c(c1)[C@]1(C)CC[N+](C)([O-])[C@@H]1N2C", "note": "(stereo partly drawn) [GENESERINE]", "IC50": 1.74}
{"smiles": "Cc1cccc(NC(=O)Oc2ccc3c(c2)[C@]2(C)CC[N+](C)([O-])[C@@H]2N3C)c1", "note": "(stereo partly drawn)", "IC50": 5.13}
{"smiles": "Cc1cccc(C)c1NC(=O)Oc1ccc2c(c1)[C@]1(C)CC[N+](C)([O-])[C@@H]1N2C", "note": "(stereo partly drawn)", "IC50": 186}
{"smiles": "CCN(C)C(=O)Oc1cccc([C@H](C)N(C)C)c1", "note": "[RIVASTIGMINE TARTRATE]", "IC50": 187}
{"smiles": "CCCc1ccccc1NC(=O)Oc1ccc2c(c1)[C@]1(C)CC[N+](C)([O-])[C@@H]1N2C", "note": "(stereo partly drawn)", "IC50": 8.44}
{"smiles": "CN1c2ccc(OC(=O)Nc3ccccc3)cc2[C@]2(C)CC[N+](C)([O-])[C@H]12", "note": "(stereo partly drawn)", "IC50": 4.74}
{"smiles": "Cc1ccccc1NC(=O)Oc1ccc2c(c1)[C@]1(C)CC[N+](C)([O-])[C@@H]1N2C", "note": "(stereo partly drawn)", "IC50": 4.04}
{"smiles": "Cc1ccc(NC(=O)Oc2ccc3c(c2)[C@]2(C)CC[N+](C)([O-])[C@@H]2N3C)cc1", "note": "(stereo partly drawn)", "IC50": 7.61}
{"smiles": "Cc1cc(C)cc(NC(=O)Oc2ccc3c(c2)[C@]2(C)CC[N+](C)([O-])[C@@H]2N3C)c1", "note": "(stereo partly drawn)", "IC50": 8.58}
{"biological_target": "T1, Acetylcholinesterase (Mus musculus) (UniProt P21836)", "T1 sequence (whole entry)": "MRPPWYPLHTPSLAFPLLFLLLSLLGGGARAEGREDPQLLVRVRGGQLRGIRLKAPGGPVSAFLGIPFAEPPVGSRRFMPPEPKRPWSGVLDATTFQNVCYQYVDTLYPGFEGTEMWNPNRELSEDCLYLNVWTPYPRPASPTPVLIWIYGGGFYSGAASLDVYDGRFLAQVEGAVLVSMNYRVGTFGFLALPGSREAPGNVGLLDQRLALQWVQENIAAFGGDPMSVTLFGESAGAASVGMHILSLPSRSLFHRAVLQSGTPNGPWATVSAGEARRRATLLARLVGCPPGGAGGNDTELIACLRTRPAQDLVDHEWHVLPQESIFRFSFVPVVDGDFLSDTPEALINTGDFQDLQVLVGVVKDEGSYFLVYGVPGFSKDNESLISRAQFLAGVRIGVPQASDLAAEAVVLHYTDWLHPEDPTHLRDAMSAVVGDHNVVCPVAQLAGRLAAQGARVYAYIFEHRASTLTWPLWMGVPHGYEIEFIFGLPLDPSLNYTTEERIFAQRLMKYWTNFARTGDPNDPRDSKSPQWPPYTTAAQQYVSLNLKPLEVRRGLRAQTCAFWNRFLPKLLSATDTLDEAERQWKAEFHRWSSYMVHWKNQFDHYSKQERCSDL", "settings": "CD1, Brain, 1.5 mg/kg", "units": {"inhibition": "%"}, "description": "Inhibition of AChE in CD1 mouse brain at 1.5 mg/kg, po after 4 hrs"}
{"smiles": "CCN(C)C(=O)Oc1cccc([C@H](C)N(C)C)c1", "note": "[RIVASTIGMINE TARTRATE]", "inhibition": 73}
